Values quoted from earlier work in patent US9304123B2, “Biomarkers used to detect and monitor neurological autoimmune diseases” (NUtech Ventures, priority 2012, dated 2016).

Test system: EAE
Settings: animal models

Structure (SMILES): CN(C)C(=N)N=C(N)N [Metformin]
- effect on EAE progression: attenuate EAE progression
